Data reported in patent US8629158B2, “Azabicycloalkane-indole and azabicycloalkane-pyrrolo-pyridine MCH-1 antagonists, methods of making, and use thereof” (Albany Molecular Research, Inc., priority 2009, dated 2014).
Structures can show the parent of a compound that is named as a salt.

molecular target: human MCH-1 receptor (Homo sapiens (Human), UniProt Q99705); assay: Binding Assay for Human Melanin-Concentrating Hormone (MCH-1) Receptor (radioligand displacement, CHO-K1 membranes); conditions: @ 1 uM test compound; read-out: MCH-1 percent inhibition of control radioligand specific binding
Description: Evaluation of the affinity of compounds for the human MCH-1 receptor was accomplished using 4-(3,4,5-tritritiumbenzyloxy)-1-(1-(2-(pyrrolidin-1-yl)ethyl)-1H-indazol-5-yl)pyridin-2(1H)-one and membranes prepared from stable CHO-K1 cells expressing the human MCH1 receptor obtained from Euroscreen (Batch 1138). Cell membrane homogenates (8.92 μg protein) were incubated for 60 min at 25° C. with […] of the [^3H]-labeled compound in the absence or presence of the test compound in 50 mM Tris-HCl buffer, pH 7.4. Nonspecific binding was determined in the presence of 50 μM 1-(5-(4-cyanophenyl)bicyclo[3.1.0]hexan-2-yl)-3-(4-fluoro-3-(trifluoromethyl)phenyl)-1-(3-(4-methylpiperazin-1-yl)propyl)urea. Following incubation, the samples were filtered rapidly under vacuum through Skatron 11731 filters, pre-soaked in 0.5% polyethylenimine, and washed with ice-cold 50 mM Tris-HCl buffer, pH 7.4, (wash setting 9,9,0) using a Skatron cell harvester. The filters were counted for radioactivity in a liquid scintillation counter (Tri-Carb 2100TR, Packard) using a scintillation cocktail (Ultima Gold MV, Perkin Elmer).
The results are expressed as a percent inhibition of the control radioligand specific binding. The IC50 value (concentration causing a half-maximal inhibition of control specific binding) and Hill coefficient (nH) were determined by non-linear regression analysis of the competition curve using Hill equation curve fitting. The inhibition constant (Ki) was calculated from the Cheng Prusoff equation: (Ki=IC50/(1+(L/KD)), where L=concentration of radioligand in the assay, and KD=affinity of the radioligand for the receptor.

Chain of human MCH-1 receptor (Q99705 whole entry): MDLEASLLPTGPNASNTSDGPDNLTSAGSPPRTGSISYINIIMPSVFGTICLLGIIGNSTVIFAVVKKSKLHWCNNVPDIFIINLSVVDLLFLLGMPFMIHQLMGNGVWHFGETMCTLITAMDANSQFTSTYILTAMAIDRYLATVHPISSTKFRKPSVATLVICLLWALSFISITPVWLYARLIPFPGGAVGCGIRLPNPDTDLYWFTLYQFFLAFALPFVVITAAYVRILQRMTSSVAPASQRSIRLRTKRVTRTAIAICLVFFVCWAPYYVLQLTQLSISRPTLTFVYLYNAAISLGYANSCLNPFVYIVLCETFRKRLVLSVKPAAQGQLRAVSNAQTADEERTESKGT

SMILES | inhibition at 1 µM [%]
Cn1c2c(c3ccc(N4CCN(CCc5ccccc5)CC4=O)cc31)C1CCC(C2)N1 (single isomer, unassigned; enantiomer a) [Example 34, 1-(5-Methyl-5,6,7,8,9,10-hexahydro-7,10-iminocyclohept[b]indol-3-yl)-4-phenethylpiperazin-2-one dihydrochloride (Enantiomer A)] | 68
Cn1c2c(c3ccc(-n4ccc(-c5ccc(C(F)(F)F)nc5)cc4=O)cc31)C1CCC(C2)N1 (single isomer, unassigned; enantiomer a) [Example 37, 1-(5-Methyl-5,6,7,8,9,10-hexahydro-7,10-iminocyclohept[b]indol-3-yl)-4-(6-(trifluoromethyl)pyridin-3-yl)pyridin-2(1H)-one hydrochloride (Enantiomer A)] | 72

same assay, conditions: MCH-1 Ki (nM), membranes from CHO-K1 cells expressing human MCH1 receptor; [3H]-labeled radioligand; Ki from IC50 by Cheng Prusoff

SMILES | Ki [nM]
Cn1c2c(c3ccc(-n4ccc(OCc5ccccc5)cc4=O)cc31)C1CCC(C2)N1 (single isomer, unassigned; enantiomer a) [Example 14, 4-(Benzyloxy)-1-(5-methyl-5,6,7,8,9,10-hexahydro-7,10-iminocyclohept[b]indol-3-yl)pyridin-2(1H)-one hydrochloride (Enantiomer A)] | 15.8
Cn1c2c(c3ccc(-n4ccc(OCc5ccc(F)cn5)cc4=O)cc31)C1CCC(C2)N1 (single isomer, unassigned; enantiomer a) [Example 25, (+)-4-((5-Fluoropyridin-2-yl)methoxy)-1-(5-methyl-5,6,7,8,9,10-hexahydro-7,10-iminocyclohept[b]indol-3-yl)pyridin-2(1H)-one hydrochloride (Enantiomer A)] | 19
CC(=O)N1C2CCC1c1c(n(C)c3cc(-n4ccc(OCc5ccc(F)cn5)cc4=O)ccc13)C2 (single isomer, unassigned; enantiomer a) [Example 29, 1-(11-Acetyl-5-methyl-5,6,7,8,9,10-hexahydro-7,10-iminocyclohept[b]indol-3-yl)-4-((5-Fluoropyridin-2-yl)methoxy)pyridin-2(1H)-one (Enantiomer A)] | 75
CC(=O)N1C2CCC1c1c([nH]c3cc(-n4ccc(OCc5ccccc5)cc4=O)ccc13)C2 (single isomer, unassigned; enantiomer a) [Example 30, 1-(11-Acetyl-5,6,7,8,9,10-hexahydro-7,10-iminocyclohept[b]indol-3-yl)-4-(benzyloxy)pyridin-2(1H)-one hydrochloride (Enantiomer A)] | 97
Cn1c2c(c3ccc(-n4ccc(OCc5ccccc5)cc4=O)cc31)C1CCC(C2)N1 (single isomer, unassigned; enantiomer b) [Example 15, 4-(Benzyloxy)-1-(5-methyl-5,6,7,8,9,10-hexahydro-7,10-iminocyclohept[b]indol-3-yl)pyridin-2(1H)-one hydrochloride (Enantiomer B)] | 7.8
Cn1c2c(c3ccc(-n4ccc(OCc5ccc(F)cn5)cc4=O)cc31)C1CCC(C2)N1 (single isomer, unassigned; enantiomer b) [Example 24, (−)-4-((5-Fluoropyridin-2-yl)methoxy)-1-(5-methyl-5,6,7,8,9,10-hexahydro-7,10-iminocyclohept[b]indol-3-yl)pyridin-2(1H)-one hydrochloride (Enantiomer B)] | 7.4
Cn1c2c(c3ccc(N4CCN(CCc5ccccc5)CC4=O)cc31)C1CCC(C2)N1 (single isomer, unassigned; enantiomer b) [Example 33, 1-(5-Methyl-5,6,7,8,9,10-hexahydro-7,10-iminocyclohept[b]indol-3-yl)-4-phenethylpiperazin-2-one dihydrochloride (Enantiomer B)] | 17
Cn1c2c(c3ccc(-n4ccc(-c5ccc(C(F)(F)F)nc5)cc4=O)cc31)C1CCC(C2)N1 (single isomer, unassigned; enantiomer b) [Example 36, 1-(5-Methyl-5,6,7,8,9,10-hexahydro-7,10-iminocyclohept[b]indol-3-yl)-4-(6-(trifluoromethyl)pyridin-3-yl)pyridin-2(1H)-one hydrochloride (Enantiomer B)] | 5.3
Cn1c2c(c3ccc(-n4ccc(OCc5ccc(C(F)(F)F)nc5)cc4=O)cc31)C1CCC(C2)N1 (single isomer, unassigned; enantiomer b) [Example 38, 1-(5-Methyl-5,6,7,8,9,10-hexahydro-7,10-iminocyclohept[b]indol-3-yl)-4-((6-(trifluoromethyl)pyridin-3-yl)methoxy)pyridin-2(1H)-one hydrochloride (Enantiomer B)] | 12

same assay, conditions: membranes from CHO-K1 cells expressing human MCH1 receptor; [3H]-labeled radioligand; Ki from IC50 by Cheng Prusoff; read-out: MCH-1 Ki

SMILES | Ki [nM]
Cn1c2c(c3ccc(-n4ccc(-c5ccc(C(F)(F)F)cn5)cc4=O)cc31)C1CCC(C2)N1 (single isomer, unassigned; enantiomer b) [Example 16, 1-(5-Methyl-5,6,7,8,9,10-hexahydro-7,10-iminocyclohept[b]indol-3-yl)-4-(5-(trifluoromethyl)pyridin-2-yl)pyridin-2(1H)-one hydrochloride (Enantiomer B)] | 14
Cc1ccc(-c2ccn(-c3ccc4c5c(n(C)c4c3)CC3CCC5N3)c(=O)c2)cn1 (single isomer, unassigned; enantiomer b) [Example 35, 1-(5-Methyl-5,6,7,8,9,10-hexahydro-7,10-iminocyclohept[b]indol-3-yl)-4-(6-methylpyridin-3-yl)-pyridin-2(1H)-one hydrochloride (Enantiomer B)] | 59
Cn1c2c(c3ccc(-n4ccc(OCc5ccccc5)cc4=O)cc31)C1CCC(C2)N1 (stereo not drawn) [Example 2, 4-(Benzyloxy)-1-(5-methyl-5,6,7,8,9,10-hexahydro-7,10-iminocyclohept[b]indol-3-yl)pyridin-2(1H)-one hydrochloride] | 10.5
Cn1c2c(c3ccc(-n4ccc(-c5ccc(C(F)(F)F)cn5)cc4=O)cc31)C1CCC(C2)N1 (stereo not drawn) [Example 4, 1-(5-Methyl-5,6,7,8,9,10-hexahydro-7,10-iminocyclohept[b]indol-3-yl)-4-(5-(trifluoromethyl)pyridin-2-yl)pyridin-2(1H)-one dihydrochloride] | 16.1
Cn1c2c(c3ccc(-n4ccc(-c5ccc(C(F)(F)F)nc5)cc4=O)cc31)C1CCC(C2)N1 (stereo not drawn) [Example 5, 1-(5-Methyl-5,6,7,8,9,10-hexahydro-7,10-iminocyclohept[b]indol-3-yl)-4-(6-(trifluoromethyl)pyridin-3-yl)pyridin-2(1H)-one dihydrochloride] | 6.5
Cn1c2c(c3ccc(-n4ccc(OCc5ccc(F)cn5)cc4=O)cc31)C1CCC(C2)N1 (stereo not drawn) [Example 6, 4-((5-Fluoropyridin-2-yl)methoxy)-1-(5-methyl-5,6,7,8,9,10-hexahydro-7,10-iminocyclohept[b]indol-3-yl)pyridin-2(1H)-one dihydrochloride] | 13.5
Cn1c2c(c3ccc(-n4ccc(-c5cnc(C(F)(F)F)nc5)cc4=O)cc31)C1CCC(C2)N1 (stereo not drawn) [Example 7, 1-(5-Methyl-5,6,7,8,9,10-hexahydro-7,10-iminocyclohept[b]indol-3-yl)-4-(2-(trifluoromethyl)pyrimidin-5-yl)pyridin-2(1H)-one hydrochloride] | 68.1
O=c1cc(OCc2ccc(F)cn2)ccn1-c1ccc2c3c([nH]c2c1)CC1CCC3N1 (stereo not drawn) [Example 9, 4-((5-Fluoropyridin-2-yl)methoxy)-1-(5,6,7,8,9,10-hexahydro-7,10-iminocyclohept[b]indol-3-yl)pyridin-2(1H)-one dihydrochloride] | 25.3
Cn1c2c(c3ccc(-n4ccc(OCc5ccc(F)cn5)cc4=O)cc31)C1CCCC(C2)N1 (stereo not drawn) [Example 11, 4-((5-Fluoropyridin-2-yl)methoxy)-1-(5-methyl-6,7,8,9,10,11-hexahydro-7,11-imino-5H-cyclooct[b]indol-3-yl)pyridin-2(1H)-one dihydrochloride] | 21.3
Cn1c2c(c3ccc(-n4ccc(OCc5ccccc5)cc4=O)cc31)C1CCCC(C2)N1 (stereo not drawn) [Example 12, 4-(Benzyloxy)-1-(5-methyl-6,7,8,9,10,11-hexahydro-7,11-imino-5H-cyclooct[b]indol-3-yl)pyridin-2(1H)-one hydrochloride] | 9.3
Cn1c2c(c3ccc(-n4ncc(OCc5ccc(F)cn5)cc4=O)cc31)C1CCCC(C2)N1 (stereo not drawn) [Example 17, 5-((5-Fluoropyridin-2-yl)methoxy)-2-(5-methyl-6,7,8,9,10,11-hexahydro-7,11-imino-5H-cyclooct[b]indol-3-yl)pyridazin-3(2H)-one hydrochloride] | 28
CC(C)N1C2CCC1c1c(n(C)c3cc(-n4ccc(OCc5ccccc5)cc4=O)ccc13)C2 (stereo not drawn) [Example 28, 4-(Benzyloxy)-1-(11-isopropyl-5-methyl-5,6,7,8,9,10-hexahydro-7,10-iminocyclohept[b]indol-3-yl)pyridin-2(1H)-one hydrochloride] | 12
CCN1C2CCCC1c1c(n(C)c3cc(-n4ccc(OCc5ccccc5)cc4=O)ccc13)C2 (stereo not drawn) [Example 32, 4-(Benzyloxy)-1-(12-ethyl-5-methyl-6,7,8,9,10,11-hexahydro-7,11-imino-5H-cyclooct[b]indol-3-yl)pyridin-2(1H)-one hydrochloride] | 15
